The results in this text go back to patent US20150110723A1, “QUINAZOLINE DERIVATIVES, COMPOSITIONS, AND USES RELATED THERETO” (EMORY UNIVERSITY, priority 2012, published 2015).

In one assay the test system is Nox2/MPO System. The assay can be described thus: L-012 cell-free assay of Nox2/MPO activity (human neutrophil plasma membranes plus recombinant p47phox, p67phox, Rac1Q61L). It is filed as biochemical. The conditions noted are these: for IC50: read-out: L-012 Assay IC50 μM ± SEM; for Inhibition of ROS from neutrophil membranes assayed by L-012 (figure legend): cell-free L-012 assay, FIG. 1 / FIG. 2. How it is done: In Table 1 a cell-free semi-recombinant system (consisting of isolated plasma membranes from human neutrophils as a source for Nox2-p22phox and MPO), supplemented with recombinant p47phox, p67phox and Rac1Q61L (activated Rac), expressed in and isolated from of E. coli. L-012 luminescence was used as a readout to monitor enzymatic activity that monitors the combined enzymatic activity of both the Nox2 system and MPO.
Plasma membranes were prepared from human neutrophils. […]. Membranes were stored at −80 C until use. Membranes are mixed with recombinant, purified cytosolic regulatory proteins (p67Np47 chimera, and constitutively active Rac1 mutant Q61) and FAD, along with varying concentrations of compound, and L-012, which luminesces when it reacts with ROS derived either from Nox2 or from MPO. The reaction is initiated by addition of NADPH and SDS (an artificial activatyor for Nox2). See Curnutte et al., (1987) J. Biol. Chem. 262: 6450-6452.

In another assay the target is T1, human Myeloperoxidase (Homo sapiens, UniProt P05164).
T1 sequence (P05164 49-745): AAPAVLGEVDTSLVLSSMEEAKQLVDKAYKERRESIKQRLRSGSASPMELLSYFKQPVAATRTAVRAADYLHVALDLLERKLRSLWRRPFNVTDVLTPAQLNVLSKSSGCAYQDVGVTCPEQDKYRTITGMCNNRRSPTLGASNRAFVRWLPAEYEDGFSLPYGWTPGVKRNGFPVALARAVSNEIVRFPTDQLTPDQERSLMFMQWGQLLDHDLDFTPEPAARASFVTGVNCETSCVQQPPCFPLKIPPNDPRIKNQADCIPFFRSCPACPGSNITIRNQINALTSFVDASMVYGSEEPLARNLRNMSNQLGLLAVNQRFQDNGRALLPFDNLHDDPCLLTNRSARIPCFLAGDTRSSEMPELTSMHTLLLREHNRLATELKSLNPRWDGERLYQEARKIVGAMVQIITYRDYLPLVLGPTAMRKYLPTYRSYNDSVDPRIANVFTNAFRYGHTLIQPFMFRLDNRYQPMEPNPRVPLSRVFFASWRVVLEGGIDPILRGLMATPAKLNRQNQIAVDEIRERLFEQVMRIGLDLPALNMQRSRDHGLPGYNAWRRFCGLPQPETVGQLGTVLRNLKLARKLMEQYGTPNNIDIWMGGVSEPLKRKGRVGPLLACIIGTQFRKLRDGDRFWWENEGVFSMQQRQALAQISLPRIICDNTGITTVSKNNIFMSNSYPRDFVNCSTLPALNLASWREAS
The assay can be described thus: Amplex Red assay of purified MPO activity. Type of assay: biochemical. To be noted: isolated purified human MPO, hydrogen peroxide as substrate. Here is the method:
In Table 2, isolated, purified human Myeloperoxidase was used in an enzyme assay system including hydrogen peroxide as substrate and Amplex Red to measure MPO enzymatic activity.
Purified human MPO is mixed with the detector molecule Amplex Red (10-acetyl-3,7-dihydroxyphenoxazine) which increases fluorescence at 590 nm) Hydrogen peroxide is added to initiate the reaction and fluorescence is monitored.

The target of another assay is T2, Nox2 (Homo sapiens, UniProt P04839).
T2 construct: superoxide originates from the endogenous Nox2 enzyme system; endogenous in cells; host or cells: isolated human neutrophils, PMA-stimulated
T2 sequence (P04839 2-570 limits assumed): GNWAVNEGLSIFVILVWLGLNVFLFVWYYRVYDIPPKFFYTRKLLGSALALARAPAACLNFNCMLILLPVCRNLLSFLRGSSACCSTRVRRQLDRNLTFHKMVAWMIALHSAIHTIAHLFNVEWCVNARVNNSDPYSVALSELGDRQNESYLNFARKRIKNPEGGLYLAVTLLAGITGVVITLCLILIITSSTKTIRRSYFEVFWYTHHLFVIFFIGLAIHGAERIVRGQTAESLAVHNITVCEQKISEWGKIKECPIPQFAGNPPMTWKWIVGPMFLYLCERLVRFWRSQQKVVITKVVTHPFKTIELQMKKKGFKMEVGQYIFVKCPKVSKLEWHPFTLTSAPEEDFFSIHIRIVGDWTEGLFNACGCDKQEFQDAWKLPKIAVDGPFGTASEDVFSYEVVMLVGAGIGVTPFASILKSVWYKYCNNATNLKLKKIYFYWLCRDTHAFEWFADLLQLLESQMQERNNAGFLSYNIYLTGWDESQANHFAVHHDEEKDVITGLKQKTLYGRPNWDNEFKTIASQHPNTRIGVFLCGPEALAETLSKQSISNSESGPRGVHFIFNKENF
T2 sequence (P13498 2-195 partner limits assumed): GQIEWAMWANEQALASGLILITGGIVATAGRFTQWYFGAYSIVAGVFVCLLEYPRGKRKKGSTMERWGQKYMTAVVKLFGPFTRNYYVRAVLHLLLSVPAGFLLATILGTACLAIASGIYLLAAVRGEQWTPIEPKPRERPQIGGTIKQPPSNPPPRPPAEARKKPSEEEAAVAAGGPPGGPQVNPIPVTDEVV
Kind of assay: Cytochrome c reduction assay for superoxide in activated human neutrophils. It is filed as cell-based. The conditions noted are these: for IC50: isolated human neutrophils, PMA-activated, absorbance at 550 nm. Here is the method:
Isolated human neutrophils represent a system in which superoxide originates from the endogenous Nox2 enzyme system, and can be measured using cytochrome c reduction that is inhibitable by added superoxide dismutase. In Table 3, Nox2 activity in isolated human neutrophils was assayed using cytochrome c reduction.
Isolated human neutrophils, which contain large amounts of Nox2 enzyme, are mixed with superoxide detector cytochrome c. Phorbol 12-myristate 13-acetate (PMA) is added at 1 μM final to stimulate Nox2 activation resulting superoxide production; absorbance at 550 nm is monitored.

The next assay concerns xanthine oxidase. Kind of assay: Xanthine/xanthine oxidase-L-012 control (interference) assay. Type of assay: biochemical. The conditions noted are these: L-012 luminescence, FIG. 1 / FIG. 2. How it is done:
Two assays are used to rule out interference. In one assay, xanthine oxidase replaces the Nox2 and MPO enzymatic system as the source of ROS. See Ritsick et al. (2007) Free Radic Biol Med 43: 31-8. Xanthine was added to start the reaction and L012 luminescence was recorded. In a control for the luminol assay, exogenous H2O2 is supplied in place of the Nox expressing H2O2-generating cells or enzyme and luminol luminescence is recorded.

The mark [1] stands for this setting: cell-free semi-recombinant system, L-012 luminescence, does not distinguish Nox2 from MPO inhibition.

Broadly, the IC50 is the concentration needed to halve the response being measured.

Consider `CC(C)n1c(=S)[nH]c2cc(F)c(F)cc2c1=O` [Compound 3l], for which the IC50 in the assay on Nox2/MPO System (setting [1]) worked out at 0.7 ± 0.1 µM. For the compound `CN1CCN(CCCn2c(=S)[nH]c3ccc(F)cc3c2=O)CC1` [LY1-107N], on human Myeloperoxidase, half-maximal inhibition (IC50) required 1 µM. With `O=c1c2cc(F)ccc2[nH]c(=S)n1CCc1cnc[nH]1` [LY1-73], the concentration for half-maximal inhibition (IC50) at human Myeloperoxidase amounted to 1.5 µM. As for `COc1cc2[nH]c(=S)n(C(C)C)c(=O)c2cc1OC` [Compound 3m], the half-maximal inhibitory concentration (IC50) with Nox2/MPO System (setting [1]) stood at 0.7 ± 0.1 µM.

Turning to `CC(Sc1nc2ccccc2c(=O)n1CCCN(C)C)C(=O)Nc1nc(-c2cccc(Br)c2)cs1` (centres unmarked) [TG6-73], the “Inhibition of superoxide production from Nox2 in intact human neutrophils (figure legend)” value on Nox2 (cytochrome c reduction, absorbance increase at 550 nm, FIG. 3) was “inhibits superoxide production”. The compound further displayed an IC50 against Nox2 of 2 µM. `CCN(CC)CCCn1c(SCC(=O)Nc2nc(-c3ccc(Br)cc3)cs2)nc2ccccc2c1=O` [AS158A] registered an IC50 at Nox2 of 0.6 µM. The compound `COc1cc2[nH]c(=S)n(CCCCN(C)C)c(=O)c2cc1OC` [AS2-30] gave an IC50 on human Myeloperoxidase of 4 µM. Regarding `CN(C)CCCCn1c(SCC(=O)Nc2nc(-c3ccc(Br)cc3)cs2)nc2ccccc2c1=O` [AS158B], in the assay with Nox2/MPO System, the “Inhibition of ROS from neutrophil membranes assayed by L-012 (figure legend)” value is reported as “inhibits ROS generation”. This compound also registered a 50% inhibitory concentration (IC50) against Nox2 of 3 µM. Further, the “Effect on control assay with ROS generated from xanthine plus xanthine oxidase” value in the assay with xanthine oxidase is given as “does not affect control assay”. `COC(=O)c1ccc2c(=O)n(N)c(=S)[nH]c2c1` [AS261b] showed an IC50 on human Myeloperoxidase of 1.5 µM. Turning to `CN(C)CCCn1c(=S)[nH]c2ccccc2c1=O` [Compound 2a], the IC50 in the assay with Nox2/MPO System (setting [1]) was determined as 3.3 ± 0.3 µM. For `O=c1c2ccccc2[nH]c(=S)n1CCc1cnc[nH]1` [LY1-27], half-maximal inhibition at human Myeloperoxidase (IC50) required 1 µM.

On to `CN(C)CCCn1c(=S)[nH]c2cc(F)c(F)cc2c1=O` [TG6-250], for which the midpoint of inhibition against human Myeloperoxidase, the IC50, lay at 1 µM. In the case of `CN(C)CCCn1c(=O)[nH]c2ccccc2c1=O` [Compound 2b], in the assay on Nox2/MPO System (setting [1]), the “L-012 Assay IC50 μM ± SEM” value was “N•I”. `CN(C)CCCCn1c(SCC(=O)Nc2nc(-c3cccc(Br)c3)cs2)nc2ccccc2c1=O` [AS195]: on Nox2, the IC50 is 1.5 µM.

With `O=c1c2ccccc2[nH]c(=S)n1CCc1ccccn1` [Compound 2zzz], the IC50 in the assay on Nox2/MPO System (setting [1]) turned out to be 4 ± 1 µM. For `CN(C)CCCn1c(=S)[nH]c2ccccc2c1=O` [TG6-17-2], the IC50 against human Myeloperoxidase came out at 1.5 µM. For the compound `CN(C)CCCn1c(SCC(=O)Nc2nc(-c3ccc(Br)cc3)cs2)nc2ccccc2c1=O` [AS148A], the IC50 against Nox2 stood at 1 µM. For `CCN(CC)CCn1c(=S)[nH]c2ccccc2c1=O` [TG6-27-2], the IC50 against human Myeloperoxidase is 2 µM. Turning to `COCCCn1c(=S)[nH]c2ccccc2c1=O` [LY1-21], the IC50 against human Myeloperoxidase worked out at 3 µM. As to `O=c1c2ccccc2[nH]c(=S)n1CCN1CCCC1` [TG6-52-2], the IC50 at human Myeloperoxidase turned out to be 1.5 µM. With `CN(C)CCCn1c(=S)[nH]c2ccc(Cl)cc2c1=O` [TG6-44], the “Inhibition of ROS from neutrophil membranes assayed by L-012 (figure legend)” value in the assay on Nox2/MPO System is listed as “Inhibits ROS activity”. Besides, the results for the IC50 in the assay with Nox2/MPO System (setting [1]) and against human Myeloperoxidase were 1.2 ± 0.1 µM and 1 µM, respectively. Further, in the assay with xanthine oxidase, the “Effect on control assay with ROS generated from xanthine plus xanthine oxidase” value is given as “does not affect control assay”.

As to `CN(C)CCCn1c(=S)[nH]c2ccc(F)cc2c1=O` [TG6-248], 2 µM corresponded to half-maximal inhibition against human Myeloperoxidase (IC50). With `CCn1c(=S)[nH]c2ccc(F)cc2c1=O` [Compound 3k], the IC50 with Nox2/MPO System (setting [1]) is 0.7 ± 0.1 µM.
